Read-outs that look alike come from different tables or passages of the source.
What was measured:
[1] = Serum PFAA concentrations in family members during intermittent phlebotomy (HPLC-MS/MS); assay type: in vivo, human; conditions: for Serum concentration before treatment: before phlebotomy
Excerpt: After receiving informed consent, intermittent phlebotomy was undertaken at an overall rate (Table 2) that was equal to or less than the maximum rate of what is done for routine blood donations at the Canadian Blood Services: ∼500 ccs of whole blood every 56 days. Frequency and timing of blood removal was not consistent between family members because of their personal availability, success at each time of venesection, and compliance of each participant. […] Mineral supplementation was discussed and was taken by each participant.
All serum samples were submitted to ALS Laboratories (Edmonton, AB) for quantitative analysis of PFAAs (see Supporting Information, S1 Table). Samples were extracted by solid phase extraction and concentrations of PFHxS, PFOS, and PFOA were determined using high performance liquid chromatography/tandem mass spectrometry. Formic acid (0.1 M) along with a mixture of isotopically labeled PFAAs (Wellington Laboratories, Guelph, Ontario) were added to 1.0 mL of serum. The mixture was vortexed, sonicated, and subjected to solid phase extraction. The extract was concentrated to 100 uL and an instrument performance internal standard was added along with 200 uL of 90% 20 mM aqueous acetic acid/10% methanol. Procedural blanks were run with each set of samples, and method limits of quantification (LOQ) were 0.5 ng/mL for each analyte. For the few PFAA levels that fell below this LOQ (shown as hollow circles in Figs. 1–3), LOQ/√2 (i.e. 0.35 ng/mL) was substituted for purposes of data analysis. PFHxS, PFOS, and PFOA levels in all participating family members were >LOQ throughout the intervention except for 3 PFOS measurements out of 16 total measurements in the 3rd child and one PFOA measurement out of 9 total measurements in the […]. Written informed consent was given by participants (or parents in the case of children) for their clinical records to be used in this study.

[2] = Apparent elimination half-life (HLapp) and phlebotomy efficiency coefficient in treated family members; assay type: in vivo, human; conditions: family members with regular phlebotomy, except parent
Excerpt: To evaluate the effect of phlebotomy, versus the expected rate of intrinsic elimination, we graphically and statistically compared the observed decreasing trends in each family member (fitted to a simple exponential decay model) with reference population elimination kinetics. Specifically, for the reference population of occupationally exposed retirees, we considered: i) the 95% confidence interval of the geometric mean elimination rate for each PFAA, and ii) the fastest individual rate of elimination rate among the reference population. For comparative purposes, the concentration of each PFAA in serum on the first day of the intervention was taken as time zero, and the models were forced through this starting point.
One metric that was calculated to compare the efficiency of the phlebotomy for removal of different PFAAs in each family member was termed the phlebotomy efficiency coefficient (EC). This was based on the subtractive difference between HLapp (yrs) in each treated family member and the geometric mean HLin (yrs) of the reference population according to Equation 1 . [drawing 1] (1)

[3] = design: method as in PMID 17805419; conditions: cited from earlier work
[4] = design: method as in PMID 23980546; conditions: urinary excretion, China, cited from earlier work
[5] = design: method as in earlier work; conditions: cited from earlier work

## O=C(O)C(F)(F)C(F)(F)C(F)(F)C(F)(F)C(F)(F)C(F)(F)C(F)(F)F [PFOA, perfluorooctanoic acid]
[1]; 1st Child
  Serum concentration before treatment: 4.7 ng/mL
[1]; 1st Child, sampling date 2009.10.12
  Serum concentration: 3.5 ng/mL
[1]; 1st Child, sampling date 2009.12.24
  Serum concentration: 4.4 ng/mL
[1]; 1st Child, sampling date 2009.6.9
  Serum concentration: 4.7 ng/mL
[1]; 1st Child, sampling date 2009.9.9
  Serum concentration: 3.9 ng/mL
[1]; 1st Child, sampling date 2010.10.14
  Serum concentration: 2.8 ng/mL
[1]; 1st Child, sampling date 2010.1.17
  Serum concentration: 4.0 ng/mL
[1]; 1st Child, sampling date 2010.2.11
  Serum concentration: 2.0 ng/mL
[1]; 1st Child, sampling date 2010.4.14
  Serum concentration: 3.8 ng/mL
[1]; 1st Child, sampling date 2011.12.5
  Serum concentration: 1.3 ng/mL
[1]; 1st Child, sampling date 2011.5.17, LOD=0.5ng/mL
  Serum concentration: 1.8 ng/mL
[1]; 1st Child, sampling date 2011.8.12, LOD=0.5ng/mL
  Serum concentration: 2.7 ng/mL
[1]; 1st Child, sampling date 2012.12.28, LOD=0.5ng/mL
  Serum concentration: 1.5 ng/mL
[1]; 1st Child, sampling date 2012.4.24
  Serum concentration: 2.3 ng/mL
[1]; 1st Child, sampling date 2012.8.21
  Serum concentration: 1.7 ng/mL
[1]; 1st Child, sampling date 2013.3.30
  Serum concentration: 1.5 ng/mL
[1]; 1st Child, sampling date 2013.7.30
  Serum concentration: 1.2 ng/mL
[1]; 2nd Child
  Serum concentration before treatment: 8.7 ng/mL
[1]; 2nd Child, sampling date 2009.10.24
  Serum concentration: 5.0 ng/mL
[1]; 2nd Child, sampling date 2009.6.6
  Serum concentration: 8.7 ng/mL
[1]; 2nd Child, sampling date 2009.7.2
  Serum concentration: 7.1 ng/mL
[1]; 2nd Child, sampling date 2009.7.30
  Serum concentration: 9.2 ng/mL
[1]; 2nd Child, sampling date 2009.8.24
  Serum concentration: 7.4 ng/mL
[1]; 2nd Child, sampling date 2009.9.27
  Serum concentration: 4.5 ng/mL
[1]; 2nd Child, sampling date 2010.1.3
  Serum concentration: 4.3 ng/mL
[1]; 2nd Child, sampling date 2010.2.15
  Serum concentration: 4.9 ng/mL
[1]; 2nd Child, sampling date 2011.10.2
  Serum concentration: 3.7 ng/mL
[1]; 2nd Child, sampling date 2011.12.24
  Serum concentration: 3.8 ng/mL
[1]; 2nd Child, sampling date 2011.4.27
  Serum concentration: 3.7 ng/mL
[1]; 2nd Child, sampling date 2011.8.14
  Serum concentration: 3.6 ng/mL
[1]; 2nd Child, sampling date 2012.12.24
  Serum concentration: 3.0 ng/mL
[1]; 2nd Child, sampling date 2012.4.6
  Serum concentration: 3.0 ng/mL
[1]; 2nd Child, sampling date 2013.5.11.
  Serum concentration: 2.1 ng/mL
[1]; 2nd Child, sampling date 2013.7.15
  Serum concentration: 1.9 ng/mL
[1]; 3rd Child
  Serum concentration before treatment: 8.2 ng/mL
[1]; 3rd Child, sampling date 2010.3.12
  Serum concentration: 6.6 ng/mL
[1]; 3rd Child, sampling date 2010.5.23
  Serum concentration: 5.3 ng/mL
[1]; 3rd Child, sampling date 2011.1.6
  Serum concentration: 4.2 ng/mL
[1]; 3rd Child, sampling date 2011.11.26
  Serum concentration: 2.2 ng/mL
[1]; 3rd Child, sampling date 2011.2.24
  Serum concentration: 3.3 ng/mL
[1]; 3rd Child, sampling date 2011.4.30
  Serum concentration: 3.0 ng/mL
[1]; 3rd Child, sampling date 2011.6.13
  Serum concentration: 3.2 ng/mL
[1]; 3rd Child, sampling date 2011.9.27
  Serum concentration: 3.0 ng/mL
[1]; 3rd Child, sampling date 2012.10.16
  Serum concentration: 2.1 ng/mL
[1]; 3rd Child, sampling date 2012.1.8
  Serum concentration: 2.9 ng/mL
[1]; 3rd Child, sampling date 2012.12.9
  Serum concentration: 2.5 ng/mL
[1]; 3rd Child, sampling date 2012.3.4
  Serum concentration: 3.2 ng/mL
[1]; 3rd Child, sampling date 2012.4.28
  Serum concentration: 3.2 ng/mL
[1]; 3rd Child, sampling date 2013.2.5
  Serum concentration: 2.2 ng/mL
[1]; 3rd Child, sampling date 2013.3.30
  Serum concentration: 2.2 ng/mL
[1]; 4th Child
  Serum concentration before treatment: 6.8 ng/mL
[1]; Average of 6 family members
  Serum concentration before treatment: 5.7 ng/mL
[1]; Parent one
  Serum concentration before treatment: 3.0 ng/mL
[1]; Parent one, sampling date 2009.10.11
  Serum concentration: 1.6 ng/mL
[1]; Parent one, sampling date 2009.10.12
  Serum concentration: 2.1 ng/mL
[1]; Parent one, sampling date 2009.11.12
  Serum concentration: 2.0 ng/mL
[1]; Parent one, sampling date 2009.12.14
  Serum concentration: 2.1 ng/mL
[1]; Parent one, sampling date 2009.2.2
  Serum concentration: 3.0 ng/mL
[1]; Parent one, sampling date 2009.5.18
  Serum concentration: 2.5 ng/mL
[1]; Parent one, sampling date 2009.6.1
  Serum concentration: 3.1 ng/mL
[1]; Parent one, sampling date 2009.7.4
  Serum concentration: 2.6 ng/mL
[1]; Parent one, sampling date 2009.9.1
  Serum concentration: 2.3 ng/mL
[1]; Parent one, sampling date 2010.10.10
  Serum concentration: 2.2 ng/mL
[1]; Parent one, sampling date 2010.1.17
  Serum concentration: 2.0 ng/mL
[1]; Parent one, sampling date 2010.3.13
  Serum concentration: 2.6 ng/mL
[1]; Parent one, sampling date 2011.1.6
  Serum concentration: 1.6 ng/mL
[1]; Parent one, sampling date 2011.11.26
  Serum concentration: 0.9 ng/mL
[1]; Parent one, sampling date 2011.2.24
  Serum concentration: 1.7 ng/mL
[1]; Parent one, sampling date 2011.4.30
  Serum concentration: 1.3 ng/mL
[1]; Parent one, sampling date 2011.6.22
  Serum concentration: 1.5 ng/mL
[1]; Parent one, sampling date 2011.8.4
  Serum concentration: 1.4 ng/mL
[1]; Parent one, sampling date 2011.9.27
  Serum concentration: 1.2 ng/mL
[1]; Parent one, sampling date 2012..12.28
  Serum concentration: 1.0 ng/mL
[1]; Parent one, sampling date 2012.1.14
  Serum concentration: 1.6 ng/mL
[1]; Parent one, sampling date 2012.11.1
  Serum concentration: 1.2 ng/mL
[1]; Parent one, sampling date 2012.3.4
  Serum concentration: 1.3 ng/mL
[1]; Parent one, sampling date 2012.4.29
  Serum concentration: 1.2 ng/mL
[1]; Parent one, sampling date 2012.7.8
  Serum concentration: 1.0 ng/mL
[1]; Parent one, sampling date 2012.8.21
  Serum concentration: 1.2 ng/mL
[1]; Parent one, sampling date 2013.10.27
  Serum concentration: 1.2 ng/mL
[1]; Parent one, sampling date 2013.2.18
  Serum concentration: 1.2 ng/mL
[1]; Parent one, sampling date 2013.3.30
  Serum concentration: 1.1 ng/mL
[1]; Parent one, sampling date 2013.5.11
  Serum concentration: 1.0 ng/mL
[1]; Parent one, sampling date 2013.7.15
  Serum concentration: 1.0 ng/mL
[1]; Parent one, sampling date 2013.9.8
  Serum concentration: 0.9 ng/mL
[1]; Parent two
  Serum concentration before treatment: 2.5 ng/mL
[1]; Parent two, sampling date 2009.6.1
  Serum concentration: 2.5 ng/mL
[1]; Parent two, sampling date 2009.7.7
  Serum concentration: 1.8 ng/mL
[1]; Parent two, sampling date 2009.8.24
  Serum concentration: 1.6 ng/mL
[1]; Parent two, sampling date 2010.1.3
  Serum concentration: 1.3 ng/mL
[1]; Parent two, sampling date 2012.3.13
  Serum concentration: 1.3 ng/mL
[1]; Parent two, sampling date 2013.1.1
  Serum concentration: 1.0 ng/mL
[1]; Parent two, sampling date 2013.10.6
  Serum concentration: 0.9 ng/mL
[1]; Parent two, sampling date 2013.6.22
  Serum concentration: 1.1 ng/mL
[2]
  HLapp compared with geometric mean HLin of reference population: significantly shorter
[3]; reference population of occupationally exposed retirees (26 individuals)
  HLin of fastest eliminator in the reference population: 1.5 yrs
[3]; reference population of occupationally exposed retirees
  95% confidence interval of the geometric mean HLin: 3.0–4.1 yrs
[3]; serum, retirees >55 yrs, previously occupationally exposed
  HLin, 95% confidence interval: 3.1–4.4 yrs
[4]; males and post-menopausal females
  HLapp: 2.6 years
[4]; reproductive-aged females
  HLapp: 2.1 years
[5]; 2009–2011
  95th percentile of serum concentration among Canadians: 5 ng/mL
[5]
  median serum concentration among Canadians: 2.7 ng/mL

— article PMC4264749, “Phlebotomy Treatment for Elimination of Perfluoroalkyl Acids in a Highly Exposed Family: A Retrospective Case-Series” (PLoS ONE, 2014)
